According to patent publication US10681909B2, “Herbicidal triazoles” (FMC Corporation, priority 2014, dated 2020):

Tests used:
barnyardgrass [1] = experiment: Test A preemergence; format: in vivo, Echinochloa crus-galli; details: 0 to 100 scale (0 no effect, 100 complete control)
Method in brief: (§1)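 For preemergence, seeds were sown in a loam soil-sand blend and given a directed soil spray of test chemical in a non-phytotoxic solvent mixture with surfactant. For postemergence, plants in pots of the same blend were sprayed with the same formulation at the one- to two-leaf stage, 2 to 10 cm tall.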

foxtail, giant = experiment: Test A preemergence; format: in vivo, Setaria faberii; details: 0 to 100 scale (0 no effect, 100 complete control)
Method in brief: as §1

pigweed = experiment: Test A preemergence; format: in vivo, Amaranthus retroflexus; details: 0 to 100 scale (0 no effect, 100 complete control)
Method in brief: as §1

wheat = experiment: Test A postemergence; format: in vivo, Triticum aestivum; details: 0 to 100 scale (0 no effect, 100 complete control), approx. 10 d
Method in brief: as §1

blackgrass = experiment: Test C postemergence; format: in vivo, Alopecurus myosuroides
Excerpt: (§2) Seeds of plant species selected from blackgrass (Alopecurus myosuroides), ryegrass, Italian (Italian ryegrass, Lolium multiflorum), wheat (winter wheat, Triticum aestivum), galium (catchweed bedstraw, Galium aparine), corn (Zea mays), crabgrass, large (large crabgrass, Digitaria sanguinalis), foxtail, giant, (giant foxtail, Setaria faberii), johnsongrass (Sorghum halepense), lambsquarters (Chenopodium album), morningglory (Ipomoea coccinea), nutsedge, yellow (yellow nutsedge, Cyperus esculentus), pigweed (Amaranthus retroflexus), ragweed (common ragweed, Ambrosia elatior), soybean (Glycine max), barnyardgrass (Echinochloa crus-galli), oilseed rape (Brassica napus), waterhemp (common waterhemp, Amaranthus rudis), and velvetleaf (Abutilon theophrasti) were planted into a blend of loam soil and sand and treated preemergence with test chemicals formulated in a non-phytotoxic solvent mixture which included a surfactant. At the same time, plants selected from these crop and weed species and also chickweed (common chickweed, Stellaria media), oat, wild (wild oat, Avena fatua), and kochia (Kochia scoparia), were planted in pots containing Sunshine Redi-Earth® planting medium comprising spaghnum peat moss, vermiculite, starter nutrients and dolomitic limestone and treated with postemergence applications of test chemicals formulated in the same manner. Plants ranged in height from 2 to 18 cm (1- to 4-leaf stage) for postemergence treatments. […] A dash (-) response means no test result.

crabgrass, large = experiment: Test C postemergence; format: in vivo, Digitaria sanguinalis
Excerpt: as §2

morningglory = experiment: Test C postemergence; format: in vivo, Ipomoea coccinea
Excerpt: as §2

soybean = experiment: Test C postemergence; format: in vivo, Glycine max
Excerpt: as §2

barnyardgrass [2] = experiment: Test C postemergence; format: in vivo, Echinochloa crus-galli
Excerpt: as §2

waterhemp = experiment: Test C postemergence; format: in vivo, Amaranthus rudis
Excerpt: as §2

velvetleaf = experiment: Test C postemergence; format: in vivo, Abutilon theophrasti
Excerpt: as §2

kochia = experiment: Test C postemergence; format: in vivo, Kochia scoparia
Excerpt: as §2

Row | SMILES | Plant response rating, Barnyardgrass (barnyardgrass [1]; 125 g ai/ha) | Plant response rating, Foxtail, Giant (foxtail, giant; 125 g ai/ha) | Plant response rating, Pigweed (pigweed; 125 g ai/ha) | Plant response rating, Wheat (wheat; 125 g ai/ha) | Plant response rating (scale of 0 to 100 where 0 is no effect and 100 is complete control) (blackgrass; 31 g ai/ha) | Plant response rating (scale of 0 to 100 where 0 is no effect and 100 is complete control) (blackgrass; 62 g ai/ha) | Plant response rating (scale of 0 to 100 where 0 is no effect and 100 is complete control) (blackgrass; 125 g ai/ha) | Plant response rating (scale of 0 to 100 where 0 is no effect and 100 is complete control) (crabgrass, large; 31 g ai/ha) | Plant response rating (scale of 0 to 100 where 0 is no effect and 100 is complete control) (crabgrass, large; 62 g ai/ha) | Plant response rating (scale of 0 to 100 where 0 is no effect and 100 is complete control) (crabgrass, large; 125 g ai/ha) | Plant response rating (scale of 0 to 100 where 0 is no effect and 100 is complete control) (morningglory; 31 g ai/ha) | Plant response rating (scale of 0 to 100 where 0 is no effect and 100 is complete control) (morningglory; 62 g ai/ha) | Plant response rating (scale of 0 to 100 where 0 is no effect and 100 is complete control) (morningglory; 125 g ai/ha) | Plant response rating (scale of 0 to 100 where 0 is no effect and 100 is complete control) (soybean; 31 g ai/ha) | Plant response rating (scale of 0 to 100 where 0 is no effect and 100 is complete control) (soybean; 62 g ai/ha) | Plant response rating (scale of 0 to 100 where 0 is no effect and 100 is complete control) (soybean; 125 g ai/ha) | Plant response rating (scale of 0 to 100 where 0 is no effect and 100 is complete control) (barnyardgrass [2]; 31 g ai/ha) | Plant response rating (scale of 0 to 100 where 0 is no effect and 100 is complete control) (barnyardgrass [2]; 62 g ai/ha) | Plant response rating (scale of 0 to 100 where 0 is no effect and 100 is complete control) (barnyardgrass [2]; 125 g ai/ha) | Plant response rating (scale of 0 to 100 where 0 is no effect and 100 is complete control) (waterhemp; 31 g ai/ha) | also measured
1 | CCCOc1nc(-c2ccccc2)nn1Cc1ccnc(C(F)(F)F)c1 [Compound 33] | 50 | 90 | 90 | 0 | 5 | 5 | 10 | 5 | 10 | 10 | 55 | 80 | 85 | 25 | 35 | 55 | 10 | 20 | 20 | 80 | Plant response rating, Barnyardgrass (barnyardgrass [1]; 500 g ai/ha, approx. 10 d): 80; Plant response rating, Foxtail, Giant (foxtail, giant; 500 g ai/ha, approx. 10 d): 100; Plant response rating, Pigweed (pigweed; 500 g ai/ha, approx. 10 d): 90; Plant response rating, Wheat (wheat; 500 g ai/ha): 30; Plant response rating (scale of 0 to 100 where 0 is no effect and 100 is complete control) (blackgrass; 250 g ai/ha): 10; Plant response rating (scale of 0 to 100 where 0 is no effect and 100 is complete control) (crabgrass, large; 250 g ai/ha): 15; Plant response rating (scale of 0 to 100 where 0 is no effect and 100 is complete control) (morningglory; 250 g ai/ha): 75; Plant response rating (scale of 0 to 100 where 0 is no effect and 100 is complete control) (soybean; 250 g ai/ha): 65; Plant response rating (scale of 0 to 100 where 0 is no effect and 100 is complete control) (barnyardgrass [2]; 250 g ai/ha): 25; Plant response rating (scale of 0 to 100 where 0 is no effect and 100 is complete control) (waterhemp; 62 g ai/ha): 95; Plant response rating (scale of 0 to 100 where 0 is no effect and 100 is complete control) (waterhemp; 125 g ai/ha): 95; Plant response rating (scale of 0 to 100 where 0 is no effect and 100 is complete control) (waterhemp; 250 g ai/ha): 95; Plant response rating (scale of 0 to 100 where 0 is no effect and 100 is complete control) (velvetleaf; 31 g ai/ha): 15; Plant response rating (scale of 0 to 100 where 0 is no effect and 100 is complete control) (velvetleaf; 62 g ai/ha): 15; Plant response rating (scale of 0 to 100 where 0 is no effect and 100 is complete control) (velvetleaf; 125 g ai/ha): 10; Plant response rating (scale of 0 to 100 where 0 is no effect and 100 is complete control) (velvetleaf; 250 g ai/ha): 40; Plant response rating (scale of 0 to 100 where 0 is no effect and 100 is complete control) (kochia; 31 g ai/ha): 90; Plant response rating (scale of 0 to 100 where 0 is no effect and 100 is complete control) (kochia; 62 g ai/ha): 90; Plant response rating (scale of 0 to 100 where 0 is no effect and 100 is complete control) (kochia; 125 g ai/ha): 90; Plant response rating (scale of 0 to 100 where 0 is no effect and 100 is complete control) (kochia; 250 g ai/ha): 90
2 | CCOc1nc(-c2ccc(Cl)cc2)nn1Cc1ccnc(C(F)(F)F)c1 [Compound 26] | 90 | 100 | 100 | 20 | 35 | 40 | 40 | 20 | 35 | 50 | 90 | 75 | 85 | 70 | 65 | 70 | 30 | 45 | 55 | 98 | Plant response rating, Barnyardgrass (barnyardgrass [1]; 31 g ai/ha): 60; Plant response rating, Foxtail, Giant (foxtail, giant; 31 g ai/ha): 100; Plant response rating, Pigweed (pigweed; 31 g ai/ha): 90; Plant response rating, Wheat (wheat; 31 g ai/ha): 20; Plant response rating (scale of 0 to 100 where 0 is no effect and 100 is complete control) (blackgrass; 16 g ai/ha): 15; Plant response rating (scale of 0 to 100 where 0 is no effect and 100 is complete control) (crabgrass, large; 16 g ai/ha): 20; Plant response rating (scale of 0 to 100 where 0 is no effect and 100 is complete control) (morningglory; 16 g ai/ha): 90; Plant response rating (scale of 0 to 100 where 0 is no effect and 100 is complete control) (soybean; 16 g ai/ha): 35; Plant response rating (scale of 0 to 100 where 0 is no effect and 100 is complete control) (barnyardgrass [2]; 16 g ai/ha): 25; Plant response rating (scale of 0 to 100 where 0 is no effect and 100 is complete control) (waterhemp; 16 g ai/ha): 95; Plant response rating (scale of 0 to 100 where 0 is no effect and 100 is complete control) (waterhemp; 62 g ai/ha): 98; Plant response rating (scale of 0 to 100 where 0 is no effect and 100 is complete control) (waterhemp; 125 g ai/ha): 98; Plant response rating (scale of 0 to 100 where 0 is no effect and 100 is complete control) (velvetleaf; 16 g ai/ha): 60; Plant response rating (scale of 0 to 100 where 0 is no effect and 100 is complete control) (velvetleaf; 31 g ai/ha): 60; Plant response rating (scale of 0 to 100 where 0 is no effect and 100 is complete control) (velvetleaf; 62 g ai/ha): 65; Plant response rating (scale of 0 to 100 where 0 is no effect and 100 is complete control) (velvetleaf; 125 g ai/ha): 70; Plant response rating (scale of 0 to 100 where 0 is no effect and 100 is complete control) (kochia; 16 g ai/ha): 85; Plant response rating (scale of 0 to 100 where 0 is no effect and 100 is complete control) (kochia; 31 g ai/ha): 90; Plant response rating (scale of 0 to 100 where 0 is no effect and 100 is complete control) (kochia; 62 g ai/ha): 90; Plant response rating (scale of 0 to 100 where 0 is no effect and 100 is complete control) (kochia; 125 g ai/ha): 90
